The assay has as its target T1, E-selectin (Homo sapiens, UniProt P16581).
T1 sequence (P16581 whole entry): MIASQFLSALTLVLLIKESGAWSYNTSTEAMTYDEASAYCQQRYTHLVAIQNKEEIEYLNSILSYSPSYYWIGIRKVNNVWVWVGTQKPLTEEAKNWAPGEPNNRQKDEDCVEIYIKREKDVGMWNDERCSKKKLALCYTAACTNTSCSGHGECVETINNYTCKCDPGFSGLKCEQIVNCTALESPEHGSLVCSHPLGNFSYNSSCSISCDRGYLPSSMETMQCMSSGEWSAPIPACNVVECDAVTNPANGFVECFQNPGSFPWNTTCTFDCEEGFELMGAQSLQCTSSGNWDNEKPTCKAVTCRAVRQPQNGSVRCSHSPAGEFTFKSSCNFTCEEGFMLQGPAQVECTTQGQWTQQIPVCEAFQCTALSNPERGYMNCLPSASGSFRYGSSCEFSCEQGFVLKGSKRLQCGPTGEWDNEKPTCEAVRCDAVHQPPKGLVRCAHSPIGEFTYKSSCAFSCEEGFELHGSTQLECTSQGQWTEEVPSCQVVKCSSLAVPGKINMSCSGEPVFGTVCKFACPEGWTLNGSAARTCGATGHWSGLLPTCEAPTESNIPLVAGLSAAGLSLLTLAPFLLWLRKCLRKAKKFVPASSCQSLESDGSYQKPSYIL
The assay can be described thus: Tested in vitro to inhibit cell adhesion of HL-60 cells to recombinant human soluble Selectin E.

For the molecule `C=CC(=O)NCCCCCCO[C@@H]1O[C@@H](CO)[C@@H](O[C@@H]2O[C@@H](CO)[C@H](O)[C@H](O[C@]3(C(=O)O)C[C@@H](O)[C@@H](NC(C)=O)[C@H]([C@H](O)[C@H](O)CO)O3)[C@@H]2O)[C@H](O[C@@H]2O[C@@H](C)[C@@H](O)[C@H](O)[C@@H]2O)[C@@H]1NC(=O)c1ccc2ccccc2c1`, the IC50 came out at 90.2 µM.
In the case of `CCO[C@@H]1O[C@@H](CO)[C@@H](O[C@@H]2O[C@@H](CO)[C@H](O)[C@H](O[C@]3(C(=O)O)C[C@@H](O)[C@@H](NC(C)=O)[C@H]([C@H](O)[C@H](O)CO)O3)[C@@H]2O)[C@H](O[C@@H]2O[C@@H](C)[C@@H](O)[C@H](O)[C@@H]2O)[C@@H]1NC(C)=O`, the IC50 was 1760 µM.

Broadly, the IC50 is the concentration that gives 50% inhibition.
